Values of other authors, collected in US7217714B1, “CCR5 modulators” (Agouron Pharmaceuticals, Inc., priority 1998, dated 2007).

Legend:
[1] = test system: CXCR4 dependent primary and lab-adapted HIV viruses; conditions: susceptible cultures
CCR5-tropic strains = conditions: Baba et al. PNAS 1999

Row | Molecule | suppression of replication of primary HIV isolates (primary HIV isolates) | other results
1 | c1cc(CN2CCCNCCNCCCNCC2)ccc1CN1CCCNCCNCCCNCC1 [AMD3100] | – | inhibition of infection by CXCR4 dependent HIV [1]: inhibit infection
2 | SDF-1: "the chemokines RANTES, MIP-1α, MIP-1β, SDF-1 have been shown to suppress replication of primary HIV isolates" | suppress replication | –
3 | Cc1ccc(-c2ccc3c(c2)C=C(C(=O)Nc2ccc(C[N+](C)(C)C4CCOCC4)cc2)CCC3)cc1.[Cl-] [TAK 779] | – | block of entry of CCR5-tropic strains (CCR5-tropic strains): blocks entry
4 | RANTES: "a protein which is regulated upon activation and is normal T-cell expressed and secreted (RANTES)" (protein, UniProt P13501 24-91, looked up) C-C motif chemokine 5: SPYSSDTTPCCFAYIARPLPRAHIKEYFYTSGKCSNPAVVFVTRKNRQVCANPEKKWVREYINSLEMS | suppress replication | –
5 | MIP-1β: "the macrophage inflammatory proteins (MIP) designated MIP-1α and MIP-1β" (protein, UniProt P13236 24-92, looked up) C-C motif chemokine 4: APMGSDPPTACCFSYTARKLPRNFVVDYYETSSLCSQPAVVFQTKRSKQVCADPSESWVQEYVYDLELN | suppress replication | –
6 | MIP-1α: "the macrophage inflammatory proteins (MIP) designated MIP-1α and MIP-1β" (protein, UniProt P10147 24-92, looked up) C-C motif chemokine 3: SLAADTPTACCFSYTSRQIPQNFIADYFETSSQCSKPGVIFLTKRSRQVCADPSEEWVQKYVSDLELSA | suppress replication | –
